Converted amounts (≈) assume the structure as drawn.
Legend:
Alternaria solani [1] = test: Antifungal activity against Alternaria solani assessed as inhibition of mycelium growth at 100 ug/ml […]; format: functional; conditions: 168 h, read-out: GI
[2] = tested on: Colletotrichum gloeosporioides; test: Antifungal activity against Colletotrichum gloeosporioides assessed as inhibition of mycelium growth at 100 ug/ml after 3 to 4 days; conditions: 72 to 96 h, read-out: GI
Botrytis cinerea [3] = test: Antifungal activity against Botryotinia fuckeliana assessed as inhibition of mycelium growth at 100 ug/ml […]; format: functional; conditions: 168 h, read-out: GI
Fusarium solani [4] = test: Antifungal activity against Fusarium solani assessed as inhibition of mycelium growth at 100 ug/ml […]; format: functional; conditions: 168 h, read-out: GI
Cytospora [5] = test: Antifungal activity against Cytospora sp. assessed as inhibition of mycelium growth at 100 ug/ml after 3 to 4 days; conditions: 72 to 96 h, read-out: GI
Alternaria solani [6] = test: Antifungal activity against Alternaria solani assessed as inhibition of mycelium growth after 1 week; format: functional, organism-based
Botrytis cinerea [7] = test: Antifungal activity against Botryotinia fuckeliana assessed as inhibition of mycelium growth after 1 week; format: functional, organism-based; conditions: 168 h
Cytospora [8] = test: Antifungal activity against Cytospora sp. assessed as […]; format: functional, organism-based
Fusarium solani [9] = test: Antifungal activity against Fusarium solani assessed as inhibition of mycelium growth after 1 week; format: functional, organism-based
[10] = tested on: Colletotrichum gloeosporioides; test: Antifungal activity against Colletotrichum gloeosporioides assessed as inhibition of mycelium growth […]; format: functional, organism-based; conditions: Colletotrichum gloeosporioides; read-out: IC50
[11] = Alternaria solani, 168 h, read-out: IC50
[12] = Cytospora, 168 h, read-out: IC50
[13] = Fusarium solani, 168 h, read-out: IC50

Row | SMILES | inhibition of growth at 100 µg/mL (Alternaria solani [1]) [%] | inhibition of growth at 100 µg/mL [2] [%] | inhibition of growth at 100 µg/mL (Botrytis cinerea [3]) [%] | inhibition of growth at 100 µg/mL (Fusarium solani [4]) [%] | inhibition of growth at 100 µg/mL (Cytospora [5]) [%] | IC50 (Alternaria solani [6]; [11]) [mg/L] | IC50 (Botrytis cinerea [7]) [mg/L] | IC50 (Cytospora [8]; [12]) [mg/L] | IC50 (Fusarium solani [9]; [13]) [mg/L] | IC50 [10] [mg/L] | IC50 (Alternaria solani [6]) | IC50 (Cytospora [8]) | IC50 (Fusarium solani [9])
1 | Cn1c(COc2ccc(C(C)(C)C)cc2)nc2ccccc21 | 23.6 | 63.8 | 64.8 | < 5 | 28.2 |  |  |  |  |  |  |  | 
2 | CC(=O)c1ccccc1OCc1nc2ccccc2n1C | 65.5 | 71.4 | 64.9 | 64.7 | 64.5 | > 100 | > 100 | > 100 | > 100 | 70.6 (≈ 252 µM) |  |  | 
3 | CC(=O)n1c(CCl)nc2ccccc21 | 11.3 | 43.9 | 57.3 | 21.4 | 8.05 |  | 50.9 (≈ 244 µM) |  |  | > 150 | Not Active | Not Active | Not Active
4 | Cn1c(COc2ccccc2)nc2cc([N+](=O)[O-])ccc21 | 10.5 | < 5 | 7.89 | 5.91 | < 5 |  |  |  |  |  |  |  | 
5 | CC(=O)c1ccccc1OCc1nc2cc([N+](=O)[O-])ccc2n1C | 13.8 | < 5 | < 5 | < 5 | < 5 |  |  |  |  |  |  |  | 
6 | Cn1c(COc2cccc3ccccc23)nc2cc([N+](=O)[O-])ccc21 | 19.5 | < 5 | < 5 | < 5 | < 5 |  |  |  |  |  |  |  | 
7 | Cn1c(CCl)nc2cc([N+](=O)[O-])ccc21 | 100 | 100 | 48.7 | 100 | 100 | 27.9 (≈ 124 µM) | > 100 | 22.5 (≈ 99.6 µM) | 23.3 (≈ 103 µM) | 28 (≈ 124 µM) |  |  | 
8 | C=CCc1ccc(OCc2nc3cc([N+](=O)[O-])ccc3n2C)c(OC)c1 | 35.1 | < 5 | 24 | 25.4 | < 5 |  |  |  |  |  |  |  | 
9 | Cn1c(COc2ccc(C=O)cc2)nc2ccccc21 | 27.8 | 49.2 | < 5 | 12 | 21 |  |  |  |  |  |  |  | 
10 | CC(=O)c1ccc(OCc2nc3cc([N+](=O)[O-])ccc3n2C)cc1 | 33.5 | < 5 | 38.6 | < 5 | < 5 |  |  |  |  |  |  |  | 
11 | Cn1c(COc2ccc([N+](=O)[O-])cc2)nc2ccccc21 | 11.3 | 41.3 | < 5 | 8.6 | 19.5 |  |  |  |  |  |  |  | 
12 | COC(=O)c1ccc(OCc2nc3ccccc3n2C)cc1 | 64.6 | < 5 | 6.43 | 48.2 | 31 |  |  |  |  |  |  |  | 
13 | CCCOC(=O)c1ccc(OCc2nc3ccccc3n2C)cc1 | 63.6 | 20.6 | < 5 | 42.2 | 48.3 |  |  |  |  |  |  |  | 
14 | CNc1ccccc1N(C)C(=O)CCl | 25.3 | 41.3 | 64.4 | 30.1 | < 5 |  |  |  |  |  |  |  | 
15 | Cn1c(COc2ccc3c(c2)OCO3)nc2ccccc21 | 64 | 81 | 88.3 | 74.5 | 80.6 | > 100 | 63.7 (≈ 226 µM) | 54.3 (≈ 192 µM) | 73 (≈ 258 µM) | 55.7 (≈ 197 µM) |  |  | 
16 | ClCc1nc2ccccc2[nH]1 | 25.3 | 67.6 | 53.2 | 6.59 | < 5 | > 100 | > 100 |  |  | 83.1 (≈ 499 µM) |  | Not Active | Not Active
17 | CC(=O)c1cccc(OCc2nc3cc([N+](=O)[O-])ccc3n2C)c1 | < 5 | < 5 | < 5 | < 5 | 51.9 |  |  |  |  |  |  |  | 
18 | Cn1c(COc2ccc(C=O)cc2)nc2cc([N+](=O)[O-])ccc21 | 16.3 | < 5 | < 5 | < 5 | 9.48 |  |  |  |  |  |  |  | 
19 | C=CCc1ccc(OCc2nc3ccccc3n2C)c(OC)c1 | 40.1 | 38.1 | 47.4 | 60.4 | 49.7 |  |  |  |  |  |  |  | 
20 | COC(=O)c1ccc(OCc2nc3cc([N+](=O)[O-])ccc3n2C)cc1 | < 5 | 59.1 | 32.2 | 18 | < 5 |  |  |  |  |  |  |  | 
21 | Cn1c(COc2cccc3ccccc23)nc2ccccc21 | 50.7 | 22.2 | < 5 | 53 | 62.6 |  |  |  |  |  |  |  | 
22 | COc1cc(C(C)=O)ccc1OCc1nc2ccccc2n1C | 17.9 | 14.3 | 59.1 | < 5 | 26 |  |  |  |  |  |  |  | 
23 | Cn1c(COc2ccc(F)cc2)nc2cc([N+](=O)[O-])ccc21 | < 5 | < 5 | < 5 | 9.95 | 22.4 |  |  |  |  |  |  |  | 
24 | Cn1c(COc2ccc(C(C)(C)C)cc2)nc2cc([N+](=O)[O-])ccc21 | 30.2 | 30.2 | 57.3 | < 5 | < 5 |  |  |  |  |  |  |  | 
25 | CCCOC(=O)c1ccc(OCc2nc3cc([N+](=O)[O-])ccc3n2C)cc1 | 8.05 | < 5 | < 5 | 19.4 | 10.9 |  |  |  |  |  |  |  | 
26 | CCOC(=O)c1ccc(OCc2nc3cc([N+](=O)[O-])ccc3n2C)cc1 | 11.3 | < 5 | < 5 | < 5 | < 5 |  |  |  |  |  |  |  | 
27 | COc1cc(C=O)ccc1OCc1nc2ccccc2n1C | 40.9 | < 5 | 15.2 | 24.7 | 10.2 |  |  |  |  |  |  |  | 
